SMILES strings stand for the structures.

These results are taken from BindingDB's records for doi:10.1016/0960-894X(95)00024-N (1995).

The assay can be described thus: Concentration required for the in vitro inhibition of Acyl coenzyme A:cholesterol acyltransferase (ACAT) in intestinal microsomes isolated from cholesterol-fed rabbits.

Regarding `CCCCCCCCCCCCCCCn1nnc(C(NC(=O)c2c(C)cccc2C)c2ccccc2)n1` (configuration not stated) [2,6-Dimethyl-N-[(2-pentadecyl-2H-tetrazol-5-yl)-phenyl-methyl]-benzamide], it took 440 nM to reach half-maximal inhibition (IC50).

With `CCCCCCCn1nnc(C(NC(=O)c2c(C)cccc2C)c2ccccc2)n1` (configuration not stated) [N-[(2-Heptyl-2H-tetrazol-5-yl)-phenyl-methyl]-2,6-dimethyl-benzamide], the half-maximal inhibitory concentration (IC50) stood at 3700 nM.

As usually defined, the IC50 is the midpoint of a concentration-inhibition curve. Low values mean inhibition by little substance, high ones a need for much substance.
